{"source": "patent US20050020668A1", "about": "“Combination comprising S-[2-([[1-(2-ethylbutyl)cyclohexyl] carbonyl]amino)phenyl] 2-methylpropanethioate and an HMG CoA reductase inhibitor” (Japan Tobacco Inc., priority 2003, published 2005)", "key": {"[1]": {"system": "male Japanese white rabbits receiving a high-cholesterol diet", "experiment": "Atherogenic index in rabbits receiving a high-cholesterol diet", "assay_type": "in vivo, rabbit", "conditions": "control group = 100%, in 0.2% cholesterol diet for 7 days: Compound I 0.5%", "experimental": "Prior to commencement of the study, male Japanese white rabbits (KITAYAMA LABES Co., Ltd.) received a normal diet (RC-4, manufactured by Oriental Bio-Service Inc.) (Time Period 1) and water ad libitum. For preliminary feeding, male Japanese white rabbits were provided with a high cholesterol diet comprising 100 g/day per rabbit of RC-4 containing 0.2% cholesterol (manufactured by Oriental Bio-Service Inc.) for 4 weeks (Time Period 2). […] For 7 days (Time Period 3), each group was administered a high cholesterol diet comprising 100 g/day per rabbit of RC-4 containing 0.2% cholesterol and one of the following: • (1) Control (no additional components) • (2) Compound I (0.5%) • (3) Simvastatin (extracted and purified from LipovasTM Tablets-5, Banyu Pharmaceutical Co.) (0.075%) • (4) Atorvastatin calcium trihydrate (extracted and purified from LipitorTM Tablets-10, Pfizer Inc.) (0.075%) • (5) Rosuvastatin calcium (extracted and purified from CrestorTM Tablets, Astra Zeneca) (0.025%) • (6) Compound I (0.5%)+simvastatin (0.075%) • (7) Compound I (0.5%)+atorvastatin calcium trihydrate (0.075%) • (8) Compound I (0.5%)+rosuvastatin calcium (0.025%) […] Atherogenic index was calculated as follows: [(total cholesterol content-HDL cholesterol content)/HDL cholesterol content]. […] A similar experiment was conducted to evaluate the effect of the administration of Compound I and pravastatin sodium ([…] Ltd.) on 12-week old male Japanese white rabbits receiving a high-cholesterol diet."}, "[2]": {"system": "patients with type II hyperlipidemia", "experiment": "Clinical study: Compound I added to pravastatin sodium therapy, lipid parameters", "assay_type": "in vivo, human", "conditions": "for Mean percent change of HDL-C from levels before administration of Compound I / Mean percent change of LDL-C from levels before administration of Compound I / Mean percent change of LDL-C/HDL-C ratio from levels before administration of Compound I / Mean percent change of TC/HDL-C ratio from levels before administration of Compound I: Visit 5 or 6 vs average of Visits 3 and 4, per protocol", "from_the_text": "(§1) This example describes a multi-center, randomized, double-blind, placebo-controlled, parallel group study designed to evaluate the therapeutic effect of the combination of S-[2-([[1-(2-ethylbutyl)cyclohexyl]carbonyl]amino)phenyl]2-methylpropanethioate (Compound I) and pravastatin sodium in patients with hyperlipidemia.\nApproximately 200 patients with type II hyperlipidemia were enrolled in the study to ensure that about 150 patients (about 50 patients per treatment group) completed the study. The patients met the following criteria: • (i) LDL-C>4.0 mmol/L (160 mg/dL), • (ii) HDL-C<1.6 mmol/L (60 mg/dL), • (iii) triglycerides<4.5 mmol/L (400 mg/dL), and • (iv) age 18-65 years.\n(§2) The total study duration was 16 weeks, which consisted of three periods. During Period 1, the first 8 weeks of the study, 40 mg of pravastatin sodium was taken once daily at bedtime by all enrolled patients. Patients were then randomized to receive placebo or 300 mg or 600 mg of Compound I once daily following breakfast for Period 2, the next 4-week period, in addition to the continued pravastatin sodium treatment. During Period 3, the last 4 weeks of the study, pravastatin sodium was administered alone.\nEach pravastatin sodium tablet comprised 40 mg of pravastatin sodium that was provided as a branded commercial product (Selektine™, Bristol-Myers Squibb B.V.). Each Compound I tablet contained 300 mg of Compound I and was supplied as a white oval tablet that is identical in appearance to the placebo tablet. The uncoated white tablets comprising Compound I were prepared using standard tableting procedures. The tablets comprised 300 mg of Compound I, 18 mg of hydroxypropylmethyl cellulose 2910 as a binder, 18 mg of talc and 1.2 mg of magnesium stearate as lubricants, and 119.8 mg of crospovidone and 90 mg of low-substituted hydroxypropyl cellulose as disintegrants.\nAll patients received 2 uncoated white tablets, such that each patient received either (a) one 300 mg Compound I tablet and one placebo tablet, (b) two 300 mg Compound I tablets, or (c) two placebo tablets during Period 2.\n(§3) Blood samples were taken at Visit 1 (−10 weeks relative to commencement of treatment with Compound I or placebo) to determine eligibility, and at Visit 2 (−8 weeks; commencement of treatment with pravastatin sodium), Visit 3 (−2 weeks), Visit 4 (commencement of treatment with Compound I or placebo), Visit 5 (+2 weeks after commencement of treatment with Compound I or placebo), Visit 6 (+4 weeks; end of treatment with Compound I or placebo), and Visit 7 (+8 weeks; end of treatment with pravastatin sodium). Each blood sample was tested for levels of lipid parameters (e.g., total cholesterol, triglycerides, HDL-C, LDL-C), CETP activity and mass, the plasma concentration of Compound I (trough level), as well as laboratory safety parameters (e.g., urinalysis, biochemistry, and hematology).\nEfficacy analyses included both descriptive summary and statistical modeling, such as analysis of variance (ANOVA) or analysis of covariance (ANCOVA). The descriptive summary included frequencies and percentages for categorical variables and statistics such as the number of available observations, mean, median, standard deviation, minimum, and maximum for all variables.\nTo determine the effect of the administration of Compound I on a patient receiving HMG CoA reductase inhibitor therapy, the mean values of HDL-C, LDL-C, TC/HDL-C ratio, LDL-C/HDL-C ratio, and CETP activity before administration of Compound I (average of values at Visits 3 and 4) and after the administration of Compound I (Visit 5 or 6) were compared. An ANOVA model containing treatment and center effects was used. […]"}, "CETP": {"molecular_target": "T1, CETP (Homo sapiens, UniProt P11597)", "T1 construct": "from tissue; host or cells: blood (plasma) samples of hyperlipidemic patients", "T1 sequence (P11597 18-493)": "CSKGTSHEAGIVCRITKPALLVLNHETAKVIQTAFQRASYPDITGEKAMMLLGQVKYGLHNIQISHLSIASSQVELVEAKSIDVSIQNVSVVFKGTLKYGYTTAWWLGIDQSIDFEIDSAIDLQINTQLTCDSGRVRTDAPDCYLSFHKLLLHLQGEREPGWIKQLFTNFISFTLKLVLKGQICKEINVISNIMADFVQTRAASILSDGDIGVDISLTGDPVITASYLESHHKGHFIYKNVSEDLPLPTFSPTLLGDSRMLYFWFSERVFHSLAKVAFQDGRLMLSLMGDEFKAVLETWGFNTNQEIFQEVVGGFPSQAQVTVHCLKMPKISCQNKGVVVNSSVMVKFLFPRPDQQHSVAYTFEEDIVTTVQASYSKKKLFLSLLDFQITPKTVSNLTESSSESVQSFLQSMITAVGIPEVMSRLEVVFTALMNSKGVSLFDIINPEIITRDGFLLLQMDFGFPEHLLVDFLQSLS", "experiment": "Clinical study: Compound I added to pravastatin sodium therapy, CETP activity in blood samples", "assay_type": "in vivo", "conditions": "for Mean percent change of CETP activity from levels before administration of Compound I: Visit 5 or 6 vs average of Visits 3 and 4, per protocol; for Decrease in CETP activity relative to levels achieved by pravastatin sodium alone: patients receiving pravastatin sodium therapy", "experimental": "CETP activity is measured essentially as described in Tollefson et al., Methods Enzymol., 129, 797-816 (1986), and Kato et al., J. Biol. Chem., 264, 4082-4087 (1989). Preferably, the CETP activity at 2 weeks (or 4 weeks, 8 weeks, 12 weeks, or six months) post-treatment initiation is decreased by about 5% or more relative to CETP activity pretreatment (e.g., about 7.5% or more, about 10% or more, about 15% or more, about 20% or more, about 25% or more, about 30% or more, about 35% or more, about 40% or more, about 45% or more, about 50% or more, about 55% or more, about 60% or more, or about 65% or more).\nas §1, §2\nas §3, with “hematology). […]” for “hematology).”\nTable 2 describes the percent change in HDL-C, LDL-C, TC/HDL-C ratio, LDL-C/HDL-C ratio, and CETP activity from the values of patients receiving pravastatin sodium therapy (average of Visit 3 and 4 values) to the values following administration of Compound I or placebo and pravastatin sodium (Visit 5 or 6). P values were determined by comparing the groups administered Compound I to the placebo group using an ANOVA model with percent change as the dependent variable and treatment and center as the fixed effects. […]"}, "[3]": {"conditions": "Table 4 experiment, pravastatin sodium 0.075%"}, "[4]": {"conditions": "Table 3 experiment, simvastatin 0.075%, atorvastatin calcium trihydrate 0.075%, rosuvastatin calcium 0.025%, blood 8 hours after feeding on Day 7"}, "[5]": {"conditions": "300 mg Compound I once daily + 40 mg pravastatin sodium, n = 45"}, "[6]": {"conditions": "300 mg treatment group, patients receiving pravastatin sodium therapy"}, "[7]": {"conditions": "600 mg Compound I once daily + 40 mg pravastatin sodium, n = 42"}, "[8]": {"conditions": "600 mg treatment group, patients receiving pravastatin sodium therapy"}}, "note": "Marks after values point to notes of the source that are not given here.", "data": [{"smiles": "CC[C@H](C)C(=O)O[C@H]1C[C@H](O)C=C2C=C[C@H](C)[C@H](CC[C@@H](O)C[C@@H](O)CC(=O)O)[C@H]21", "note": "[Pravastatin sodium]", "values": [{"measurement": "Atherogenic Index (%)", "setting": "[1]; [3]", "result": 40, "unit": "%"}]}, {"smiles": "CCC(C)(C)C(=O)O[C@H]1C[C@@H](C)C=C2C=C[C@H](C)[C@H](CC[C@@H]3C[C@@H](O)CC(=O)O3)[C@H]21", "note": "[Simvastatin]", "values": [{"measurement": "Atherogenic Index (%)", "setting": "[1]; [4]", "result": 51, "unit": "%"}]}, {"smiles": "CC(C)c1nc(N(C)S(C)(=O)=O)nc(-c2ccc(F)cc2)c1/C=C/[C@@H](O)C[C@@H](O)CC(=O)[O-].CC(C)c1nc(N(C)S(C)(=O)=O)nc(-c2ccc(F)cc2)c1/C=C/[C@@H](O)C[C@@H](O)CC(=O)[O-].[Ca+2]", "note": "[Rosuvastatin calcium]", "values": [{"measurement": "Atherogenic Index (%)", "setting": "[1]; [4]", "result": 81, "unit": "%"}]}, {"smiles": "CCC(CC)CC1(C(=O)Nc2ccccc2SC(=O)C(C)C)CCCCC1", "note": "[Compound I, S-[2-([[1-(2-ethylbutyl)cyclohexyl]carbonyl]amino)phenyl]2-methylpropanethioate]", "values": [{"measurement": "Mean percent change of HDL-C from levels before administration of Compound I", "setting": "[2]; [5]", "result": "12.96* %"}, {"measurement": "Mean percent change of LDL-C from levels before administration of Compound I", "setting": "[2]; [5]", "result": 1.57, "unit": "%"}, {"measurement": "Mean percent change of LDL-C/HDL-C ratio from levels before administration of Compound I", "setting": "[2]; [5]", "result": "−10.31^† %"}, {"measurement": "Mean percent change of TC/HDL-C ratio from levels before administration of Compound I", "setting": "[2]; [5]", "result": "−8.09^† %"}, {"measurement": "Decrease in LDL-C/HDL-C ratio relative to levels achieved by pravastatin sodium alone", "setting": "[2]; [6]", "result": "about 10%"}, {"measurement": "Decrease in TC/HDL-C ratio relative to levels achieved by pravastatin sodium alone", "setting": "[2]; [6]", "result": "about 8%"}, {"measurement": "Increase in HDL-C levels relative to levels achieved by pravastatin sodium alone", "setting": "[2]; [6]", "result": "about 13%"}, {"measurement": "Mean percent change of HDL-C from levels before administration of Compound I", "setting": "[2]; [7]", "result": "28.43* %"}, {"measurement": "Mean percent change of LDL-C from levels before administration of Compound I", "setting": "[2]; [7]", "result": "−7.91^‡ %"}, {"measurement": "Mean percent change of LDL-C/HDL-C ratio from levels before administration of Compound I", "setting": "[2]; [7]", "result": "−26.03* %"}, {"measurement": "Mean percent change of TC/HDL-C ratio from levels before administration of Compound I", "setting": "[2]; [7]", "result": "−18.72* %"}, {"measurement": "Decrease in LDL-C levels relative to level achieved by pravastatin sodium alone", "setting": "[2]; [8]", "result": "about 8%"}, {"measurement": "Decrease in LDL-C/HDL-C ratio relative to levels achieved by pravastatin sodium alone", "setting": "[2]; [8]", "result": "about 26%"}, {"measurement": "Decrease in TC/HDL-C ratio relative to levels achieved by pravastatin sodium alone", "setting": "[2]; [8]", "result": "about 19%"}, {"measurement": "Increase in HDL-C levels relative to levels achieved by pravastatin sodium alone", "setting": "[2]; [8]", "result": "about 28%"}, {"measurement": "Mean percent change of CETP activity from levels before administration of Compound I", "setting": "CETP; [5]", "result": "−18.10* %"}, {"measurement": "Decrease in CETP activity relative to levels achieved by pravastatin sodium alone", "setting": "CETP; 300 mg treatment group", "result": "about 18%"}, {"measurement": "Mean percent change of CETP activity from levels before administration of Compound I", "setting": "CETP; [7]", "result": "−31.62* %"}, {"measurement": "Decrease in CETP activity relative to levels achieved by pravastatin sodium alone", "setting": "CETP; 600 mg treatment group", "result": "about 32%"}, {"measurement": "Atherogenic Index (%)", "setting": "[1]; [4]", "result": 54, "unit": "%"}, {"measurement": "Atherogenic Index (%)", "setting": "[1]; [3]", "result": 60, "unit": "%"}]}, {"smiles": "CC(C)c1c(C(=O)Nc2ccccc2)c(-c2ccccc2)c(-c2ccc(F)cc2)n1CC[C@@H](O)C[C@@H](O)CC(=O)O", "note": "[Atorvastatin calcium trihydrate]", "values": [{"measurement": "Atherogenic Index (%)", "setting": "[1]; [4]", "result": 49, "unit": "%"}]}]}
